The results in this text go back to article PMC3433420 (PLoS ONE, 2012).

The target in one assay is PLCG1-N SH2 domain (Homo sapiens, UniProt P19174). The experiment in a line: FP saturation binding assay.
The target of another assay is T1, SRC SH2 domain (Homo sapiens, UniProt P12931).
T1 construct: between the c-Src SH2 domain and ErbB1 in our FP assay; 6X His; thioredoxin; made in house; host or cells: E. coli BL21(DE3)pLysS
The assay is described as follows: FP saturation binding assay. As to conditions: protein SRC; high-confidence ErbB interactions; mean of replicate hits. An outline of the steps: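 Rhodamine-labeled peptides (10 nM final) were titrated with 12 SH2 domain concentrations (0.002–10 µM) in 20 mM HEPES, 100 mM KCl, 0.1% Tween-20, 5 mM DTT, pH 7.8. After 20 min at room temperature in the dark, FP (ex 530/em 555 nm) was read. KDs came from nonlinear least-squares fits.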

Residues, ends and D or L forms follow the SMILES beside them.

Chain of PLCG1-N SH2 domain (P19174 550-657 limits assumed): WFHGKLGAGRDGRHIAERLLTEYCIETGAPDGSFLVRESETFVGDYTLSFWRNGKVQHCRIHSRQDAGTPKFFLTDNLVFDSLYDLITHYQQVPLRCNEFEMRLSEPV
T1 sequence (P12931 151-248 limits assumed): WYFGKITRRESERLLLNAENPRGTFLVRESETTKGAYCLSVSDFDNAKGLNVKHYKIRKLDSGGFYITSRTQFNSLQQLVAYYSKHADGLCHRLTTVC

One may read the Kd as the constant that tells how readily two partners part at equilibrium. A low value points to a tighter complex. Consider `CC(C)[C@H](NC(=O)[C@H](CC(=O)O)NC(=O)[C@@H]1CCCN1C(=O)[C@H](CCC(N)=O)NC(=O)[C@H](CC(N)=O)NC(=O)[C@@H](NC(=O)[C@H](Cc1ccc(OP(=O)(O)O)cc1)NC(=O)[C@H](CCC(=O)O)NC(=O)[C@@H]1CCCN1C(=O)[C@H](CCC(N)=O)NC(=O)[C@@H]1CCCN1)C(C)C)C(=O)N[C@@H](CCCNC(=N)N)C(=O)N[C@@H](CC(=O)O)C(=O)O` [ErbB2 1139 13-mer] (HELM PEPTIDE1{P.Q.P.E.[O=C([C@H](Cc1ccc(OP(=O)(O)O)cc1)N[*:1])[*:2]].V.N.Q.P.D.V.R.D}$$$$V2.0), for which the Kd at PLCG1-N SH2 domain turned out to be 11.8 µM. At SRC SH2 domain, `CC(C)C[C@H](NC(=O)[C@H](Cc1ccc(OP(=O)(O)O)cc1)NC(=O)[C@H](CC(C)C)NC(=O)[C@@H]1CCCN1C(=O)[C@H](CCC(=O)O)NC(=O)[C@H](CC(N)=O)NC(=O)[C@@H](NC(=O)[C@H](Cc1ccc(O)cc1)NC(=O)[C@H](CCC(=O)O)NC(=O)[C@H](CC(=O)O)NC(=O)[C@@H](N)CCC(=O)O)C(C)C)C(=O)N[C@@H](CC(N)=O)C(=O)N[C@H](C(=O)N[C@@H](Cc1ccccc1)C(=O)N[C@@H](C)C(=O)N[C@@H](CC(N)=O)C(=O)N[C@H](C(=O)N[C@@H](CC(=O)O)C(=O)O)[C@@H](C)O)[C@@H](C)O` [ErbB4 1208 18-mer] (HELM PEPTIDE1{E.D.E.Y.V.N.E.P.L.[O=C([C@H](Cc1ccc(OP(=O)(O)O)cc1)N[*:1])[*:2]].L.N.T.F.A.N.T.D}$$$$V2.0) gave a Kd of 5.84 µM.
